The text below walks through data of ChEMBL document CHEMBL1153190, “Novel neofusapyrones isolated from Verticillium dahliae as potent antifungal substances” (Bioorg Med Chem Lett, 2010).

The structures appear in SMILES notation. Calls of active or inactive are those of the source. The rule behind the calls is not given here.

One series has as its system Staphylococcus aureus. Briefly: Antibacterial activity against methicillin-resistant Staphylococcus aureus Isolate 87-7927 at 10 ug. The format is functional, organism-based.
The subject of a further series is HeLa. In words: Cytotoxicity against human HeLa cells. The format is cell-based.
For the next series, the system named is HepG2. Briefly: Cytotoxicity against human HepG2 cells. In kind it is cell-based.
Another series concerns Bipolaris oryzae. Briefly: Antifungal activity against Cochliobolus miyabeanus at 100 ng/ml. The format is functional, organism-based.

Regarding `CCCCCCC(C)C/C(C)=C\C(C)/C=C(C)/C=C/C(O)C(C)(C)c1cc(O)c([C@@H]2O[C@H](CO)C[C@H](O)[C@H]2O)c(=O)o1` (some centres not stated) [DEOXYNEOFUSAPYRONE], the outcome with Staphylococcus aureus and in the series with Bipolaris oryzae was Active. The Activity entry in the series with HeLa and in the series with HepG2 was “Non-toxic” each time.

Turning to `CCCCCCC(C)C/C(C)=C\C(C)/C=C(C)/C=C/C(O)C(C)c1cc(O)c([C@@H]2O[C@H](CO)C[C@H](O)[C@H]2O)c(=O)o1` (some centres not stated), the Activity result with HeLa and in the series on HepG2 was “Non-toxic” throughout. The result in the series with Bipolaris oryzae was Active.
